What was measured:
[1] = test system: IA memory in the rat; assay: Inhibitory Avoidance (IA) task, normal rats; type: in vivo; details: for performance on the IA task, normal rats: one hour before, p<0.05 relative to all other groups; for long-term retention of the IA task: second retention test one week after the first, no additional training or drug
Method: An exemplary passive avoidance test utilizes an apparatus that consists of a lit chamber that can be separated from a dark chamber by a sliding door. At training, the animal is placed in the lit chamber for some period of time, and the door is opened. The animal moves to the dark chamber after a short delay—the latency—that is recorded. Upon entry into the dark chamber, the door is shut closed and a foot shock is delivered.
The Inhibitory Avoidance (IA) task is a well-studied behavioral paradigm which can provide the researcher with a consistent and long-lasting measure of memory. The paradigm consists of one training trial and one retention trial. Test articles may be administered to the rats either before or after training. […] The objective of the following experiments was to investigate the effects of methylphenidate on IA memory in the rat.

[2] = test system: fornix lesion rats; assay: Inhibitory Avoidance (IA) task, rats with lesions of the fornix (amnesic rats); type: in vivo, rat; details: one hour before; for performance of treated fornix animals compared with normal, saline injected animals: Student-Newman-Keuls post hoc test
From the text: Animal models for studying fornix-mediated memory consolidation have previously been described. See, for example, Taubenfield et al., Supra. The fornix-lesioned animals can be used for drug screening, e.g., to identify dosages of the subject reuptake inhibitors which enhance memory consolidation. The lesioned mammal can have a lesion of the fornix or a related brain structure that disrupts memory consolidation (e.g., perirhinal cortex, amygdala, medial septal nucleus, locus coeruleus, hippocampus, mammallary bodies). Lesions in the mammal can be produced by mechanical or chemical disruption. For example, the fornix lesion can be caused by surgical ablation, electrolytic, neurotoxic and other chemical ablation techniques, or reversible inactivation such as by injection of an anesthetic, e.g., tetrodotoxin or lidocaine, to temporarily arrest activity in the fornix.
In one embodiment, the animal can be a rat. Briefly, the animals are anesthetized, e.g., with intraperitoneal injections of a ketamine-xylazine mixture and positioned in a Kopf stereotaxic instrument. A sagittal incision is made in the scalp and a craniotomy is performed extending 2.0 mm posterior and 3.0 mm lateral from Bregma. An aspirative device, e.g., with a 20 gauge tip, is mounted to a stereotaxic frame (Kopf Instruments) and fimbria-fornix is aspirated by placing the suction tip at the correct sterotaxic location in the animals brain. Unilateral aspirative lesions are made by suction through the cingulate cortex, completely transecting the fimbria fornix unilaterally, and (optionally) removing the dorsal tip of the hippocampus as well as the overlying cingulate cortex to inflict a partial denervation on the hippocampus target. See also, Gage et al., (1983) Brain Res. 268:27 and Gage et al. (1986) Neuroscience 19:241.
The Inhibitory Avoidance (IA) task is a well-studied behavioral paradigm which can provide the researcher with a consistent and long-lasting measure of memory. The paradigm consists of one training trial and one retention trial. Test articles may be administered to the rats either before or after training. Improved memory, as a result of test compound administration, is evident as increased latency on the retention trial. The objective of the following experiments was to investigate the effects of methylphenidate on IA memory in the rat.
In the next experiment, we investigated whether the performance of amnesic rats could be improved by administration of methylphenidate. In this experiment, control rats and rats with lesions of the fornix received injections of either saline or methylphenidate (5 mg/kg), and one hour later, were tested on the IA task.
In the next experiment, we investigated whether the performance of amnesic rats could be improved by administration of amphetamine. […]

[3] = test system: rats; assay: Activity level tests (10 minute session); details: 0.5 mg/kg; 10 minute period one hour after injection; FIGS. 16-21

## C[C@H](N)Cc1ccccc1 [S-(+)amphetamine]
[1]; 2 mg/kg (200 standard units) one hour prior to training, 24 hour retention interval, 0.46 mA shock, FIG. 9
  retention of the IA task: improved retention of the task
[1]; 25 standard units/kg, injected thirty minutes prior to training, FIG. 4
  retention of the IA task: no effect
[1]; 50 standard units/kg, injected thirty minutes prior to training, FIG. 4
  retention of the IA task: no effect
[1]; 100 standard units/kg, injected thirty minutes prior to training, FIG. 4
  retention of the IA task: no effect
[1]; 200 standard units, injected thirty minutes prior to training, FIG. 4
  retention of the IA task: improved retention of the task
[1]; 200 standard units/kg, FIG. 8
  performance on the IA task, normal rats: dramatically enhanced the performance of normal rats
[1]; 200 standard units/kg, unpaired t-test p<0.01, FIG. 5
  retention of the IA task (second, verifying experiment): significantly improved retention of the task
[1]; F(4,47)=3.688, p<0.01, FIG. 7
  long-term retention of the IA task: performed significantly better than rats that had received control injections of vehicle solution
[2]; 200 standard units/kg, FIG. 8
  performance on the IA task, fornix lesion rats: appeared to improve the performance of the fornix lesion rats
[2]; 200 standard units/kg
  performance of treated fornix animals compared with normal, saline injected animals: not significantly different from normal, saline injected animals

## COC(=O)C(c1ccccc1)C1CCCCN1 (centres unmarked) [methylphenidate]
[1]; 5 mg/kg, FIG. 3
  performance on the IA task, normal rats: dramatically enhanced the performance of normal rats
[1]; 50 standard units/kg, injected thirty minutes prior to training, FIG. 1
  retention of the IA task: improved retention
[1]; 50 standard units/kg, time of administration varied
  optimal pre-training drug administration time: most effective when administered to the rats one hour prior to training
[1]; 50 standard units/kg, unpaired t-test p<0.03, FIG. 2
  retention of the IA task (second, verifying experiment): significantly improved retention of the task
[1]; 100 standard units/kg, injected thirty minutes prior to training, FIG. 1
  retention of the IA task: no effect
[1]; 150 standard units/kg, injected thirty minutes prior to training, FIG. 1
  retention of the IA task: no effect
[1]
  long-term retention of the IA task: this improvement is long lasting
[2]; 5 mg/kg, FIG. 3
  performance on the IA task, fornix lesion rats: appeared to improve the performance of the fornix lesion rats
[2]; 5 mg/kg
  performance of treated fornix animals compared with normal, saline injected animals: not significantly different from normal, saline injected animals

## C[C@@H](N)Cc1ccccc1 [R-(−)amphetamine]
[1]; 0.5 mg/kg one hour prior to training, 24 hour retention interval, 0.46 mA shock, unpaired t-test p<0.002, FIG. 15
  retention of the IA task (second, verifying experiment): significantly improved retention of the task
[1]; 0.5, 1.0, 2.0 or 4.0 mg/kg one hour prior to training, 24 hour retention interval, 0.46 mA shock, FIG. 14
  dose required for improved retention of the IA task, compared with S-(+)amphetamine: a much lower dose of R-(−)amphetamine is required for the same improved retention effect
[1]; 1.0, 2.0 or 4.0 mg/kg versus 0.5 mg/kg, one hour prior to training, 24 hour retention interval, FIG. 14
  retention of the IA task at doses above 0.5 mg/kg: did not further improve the retention results
[3]
  activity levels (distance, movements, movement time, rears, stereotyped movements, resting time) versus saline control: no significant effects on the activity levels

Source: patent publication US20020161002A1, “Use of catecholamine reuptake inhibitors to enhance memory” (priority 2001, published 2002)
